Experimental findings from patent publication US10550105B2 (Ribon Therapeutics Inc., priority 2018, dated 2020) are described below.

The target of this test is PARP7 (Homo sapiens (Human), UniProt Q7Z3E1). Description: Enzymatic assay for inhibition of PARP7: TR-FRET displacement of biotinylated Probe A from the TIPARP active site. Format: binding. Conditions: Table A-1. The method in brief: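 Compound dose-response series were incubated with TIPARP and biotinylated Probe A, with a final 30 min step at 25 °C. TR-FRET was read at 320 nm excitation, 615/665 nm emission and 90 μs delay, using the 665/615 ratio to measure complex formation. % inhibition was fitted with a floating or fixed (1) Hill coefficient.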
For orientation: Time-resolved FRET reads energy transfer from a long-lived donor to a nearby acceptor.

Molecules are shown by their SMILES. Bounds are passed on as bounds.

In general, IC50 refers to the concentration at which inhibition is half-maximal. Low readings indicate greater potency, high ones weaker potency.

Sequence of PARP7 (Q7Z3E1 whole entry): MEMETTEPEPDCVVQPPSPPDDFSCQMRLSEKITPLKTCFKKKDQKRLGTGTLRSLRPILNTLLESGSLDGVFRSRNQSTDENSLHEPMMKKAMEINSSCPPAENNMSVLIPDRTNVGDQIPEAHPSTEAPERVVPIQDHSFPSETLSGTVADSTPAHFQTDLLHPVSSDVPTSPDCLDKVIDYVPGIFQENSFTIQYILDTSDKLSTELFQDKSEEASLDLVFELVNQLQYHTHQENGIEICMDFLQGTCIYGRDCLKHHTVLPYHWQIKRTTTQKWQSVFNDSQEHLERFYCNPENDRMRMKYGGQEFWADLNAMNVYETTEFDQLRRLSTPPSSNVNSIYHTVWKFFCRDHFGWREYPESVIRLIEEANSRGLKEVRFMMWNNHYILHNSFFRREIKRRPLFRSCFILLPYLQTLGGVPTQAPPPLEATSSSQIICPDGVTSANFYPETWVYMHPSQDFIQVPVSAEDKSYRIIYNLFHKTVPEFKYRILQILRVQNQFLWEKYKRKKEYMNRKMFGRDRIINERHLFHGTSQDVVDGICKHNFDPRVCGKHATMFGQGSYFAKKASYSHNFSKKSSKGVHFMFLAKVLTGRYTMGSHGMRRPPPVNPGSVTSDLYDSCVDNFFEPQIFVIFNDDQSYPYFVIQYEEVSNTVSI

With `O=C(c1cccc(OCC2c3ccccc3CN2c2cn[nH]c(=O)c2C(F)(F)F)c1)N1CCN(c2ccc(C(F)(F)F)cn2)CC1` (stereo not shown) [Example 368, 4-(Trifluoromethyl)-5-(1-((3-(4-(5-(trifluoromethyl)pyridin-2-yl)piperazine-1-carbonyl)phenoxy)methyl)isoindolin-2-yl)pyridazin-3(2H)-one], the IC50 was below 100 nM.
Turning to `N#Cc1cnc(N2CCN(C(=O)c3cccc(OC[C@H]4c5ccccc5CN4c4cn[nH]c(=O)c4C(F)(F)F)c3)CC2)cn1` [Example 369, (R)-5-(4-(3-((2-(6-Oxo-5-(trifluoromethyl)-1,6-dihydropyridazin-4-yl)isoindohn-1-yl)methoxy)benzoyl)piperazin-1-yl)pyrazine-2-carbonitrile], the IC50 was in the range of 100 to 1000 nM.
With `N#Cc1cnc(N2CCN(C(=O)c3cccc(OC[C@@H]4c5ccccc5CN4c4cn[nH]c(=O)c4C(F)(F)F)c3)CC2)cn1` [Example 370, (S)-5-(4-(3-((2-(6-Oxo-5-(trifluoromethyl)-1,6-dihydropyridazin-4-yl)isoindohn-1-yl)methoxy)benzoyl)piperazin-1-yl)pyrazine-2-carbonitrile] the figure was below 100 nM.
With `N#Cc1ccc(N2CCN(C(=O)c3ccc(OCC4c5ccccc5CN4c4cn[nH]c(=O)c4C(F)(F)F)cc3)CC2)nc1` (stereo not shown) [Example 371, 6-(4-(4-((2-(6-Oxo-5-(trifluoromethyl)-1,6-dihydropyridazin-4-yl)isoindolin-1-yl)methoxy)benzoyl)piperazin-1-yl)nicotinonitrile] the figure was 100 to 1000 nM.
Molecule `O=C(c1cccc(OC[C@H]2c3ccccc3CN2c2cn[nH]c(=O)c2C(F)(F)F)c1)N1CCn2c(nnc2C(F)(F)F)C1` [Example 372, (R)-4-(Trifluoromethyl)-5-(1-((3-(3-(trifluoromethyl)-5,6,7,8-tetrahydro-[1,2,4]triazolo[4,3-a]pyrazine-7-carbonyl)phenoxy)methyl)isoindolin-2-yl)pyridazin-3(2H)-one] registered an IC50 of at least 1000 nM.
`O=C(c1cccc(OC[C@@H]2c3ccccc3CN2c2cn[nH]c(=O)c2C(F)(F)F)c1)N1CCn2c(nnc2C(F)(F)F)C1` [Example 373, (S)-4-(Trifluoromethyl)-5-(1-((3-(3-(trifluoromethyl)-5,6,7,8-tetrahydro-[1,2,4]triazolo[4,3-a]pyrazine-7-carbonyl)phenoxy)methyl)isoindolin-2-yl)pyridazin-3(2H)-one] came in with an IC50 below 100 nM.
With `O=C(c1cncc(OCC2c3ccccc3CN2c2cn[nH]c(=O)c2C(F)(F)F)c1)N1CCN(c2ccc(C(F)(F)F)cn2)CC1` (stereo not shown) [Example 374, 4-(Trifluoromethyl)-5-(1-(((5-(4-(5-(trifluoromethyl)pyridin-2-yl)piperazine-1-carbonyl)pyridin-3-yl)oxy)methyl)isoindolin-2-yl)pyridazin-3(2H)-one] the figure was below 100 nM.
In turn, `O=C(c1cncc(OCC2c3ccccc3CN2c2cn[nH]c(=O)c2C(F)(F)F)c1)N1CCN(c2ccc(F)cn2)CC1` (stereo not shown) [Example 375, 5-(1-(((5-(4-(5-Fluoropyridin-2-yl)piperazine-1-carbonyl)pyridin-3-yl)oxy)methyl)isoindolin-2-yl)-4-(trifluoromethyl)pyridazin-3(2H)-one] returned an IC50 below 100 nM.
Regarding `O=C(c1cncc(OCC2c3ccccc3CN2c2cn[nH]c(=O)c2C(F)(F)F)c1)N1CCN(c2ccc(Cl)cn2)CC1` (stereo not shown) [Example 376, 5-(1-(((5-(4-(5-Chloropyridin-2-yl)piperazine-1-carbonyl)pyridin-3-yl)oxy)methyl)isoindolin-2-yl)-4-(trifluoromethyl)pyridazin-3(2H)-one], the IC50 is below 100 nM.
Molecule `O=C(c1cccc(OCC2c3ccccc3CN2c2cn[nH]c(=O)c2C(F)(F)F)c1)N1CCN(c2ncc(C(F)(F)F)cn2)CC1` (stereo not shown) [Example 377, 4-(Trifluoromethyl)-5-(1-((3-(4-(5-(trifluoromethyl)pyrimidin-2-yl)piperazine-1-carbonyl)phenoxy)methyl)isoindolin-2-yl)pyridazin-3(2H)-one] showed an IC50 below 100 nM.
Next, `O=C(c1cncc(OCC2c3ccccc3CN2c2cn[nH]c(=O)c2C(F)(F)F)c1)N1CCN(c2ncc(C(F)(F)F)cn2)CC1` (stereo not shown) [Example 378, 4-(Trifluoromethyl)-5-(1-(((5-(4-(5-(trifluoromethyl)pyrimidin-2-yl)piperazine-1-carbonyl)pyridin-3-yl)oxy)methyl)isoindolin-2-yl)pyridazin-3(2H)-one]: below 100 nM; `N#Cc1cnc(N2CCN(C(=O)c3cncc(OCC4c5ccccc5CN4c4cn[nH]c(=O)c4C(F)(F)F)c3)CC2)nc1` (stereo not shown) [Example 379, 2-(4-(5-((2-(6-Oxo-5-(trifluoromethyl)-1,6-dihydropyridazin-4-yl)isoindolin-1-yl)methoxy)nicotinoyl)piperazin-1-yl)pyrimidine-5-carbonitrile]: below 100 nM; `N#Cc1cnc(N2CCN(C(=O)c3cc(OCC4c5ccccc5CN4c4cn[nH]c(=O)c4C(F)(F)F)ccn3)CC2)nc1` (stereo not shown) [Example 380, 2-(4-(4-((2-(6-Oxo-5-(trifluoromethyl)-1,6-dihydropyridazin-4-yl)isoindolin-1-yl)methoxy)picolinoyl)piperazin-1-yl)pyrimidine-5-carbonitrile]: below 100 nM.
With `N#Cc1ccc(N2CCN(C(=O)c3ccnc(OCC4c5ccccc5CN4c4cn[nH]c(=O)c4C(F)(F)F)c3)CC2)nc1` (stereo not shown) [Example 381, 6-(4-(2-((2-(6-Oxo-5-(trifluoromethyl)-1,6-dihydropyridazin-4-yl)isoindolin-1-yl)methoxy)isonicotinoyl)piperazin-1-yl)nicotinonitrile] the figure was below 100 nM; with `N#Cc1ccc(N2CCN(C(=O)c3ccnc(OCC4c5ccccc5CN4c4cn[nH]c(=O)c4C(F)(F)F)n3)CC2)nc1` (stereo not shown) [Example 383, 6-(4-(2-((2-(6-Oxo-5-(trifluoromethyl)-1,6-dihydropyridazin-4-yl)isoindolin-1-yl)methoxy)pyrimidine-4-carbonyl)piperazin-1-yl)nicotinonitrile], below 100 nM.
Consider `O=C(c1cncc(OC[C@@H]2c3ccccc3CN2c2cn[nH]c(=O)c2C(F)(F)F)c1)N1CCN(c2ccc(C(F)(F)F)cn2)CC1` [Example 384, (S)-4-(Trifluoromethyl)-5-(1-(((5-(4-(5-(trifluoromethyl)pyridin-2-yl)piperazine-1-carbonyl)pyridin-3-yl)oxy)methyl)isoindolin-2-yl)pyridazin-3(2H)-one], for which the IC50 is below 100 nM.
With `O=C(c1cncc(OC[C@H]2c3ccccc3CN2c2cn[nH]c(=O)c2C(F)(F)F)c1)N1CCN(c2ccc(C(F)(F)F)cn2)CC1` [Example 385, (R)-4-(Trifluoromethyl)-5-(1-(((5-(4-(5-(trifluoromethyl)pyridin-2-yl)piperazine-1-carbonyl)pyridin-3-yl)oxy)methyl)isoindolin-2-yl)pyridazin-3(2H)-one] the figure was 100 to 1000 nM; with `O=C(c1cncc(OC[C@@H]2c3ccccc3CN2c2cn[nH]c(=O)c2C(F)(F)F)c1)N1CCN(c2ccc(F)cn2)CC1` [Example 386, (5)-5-(1-(((5-(4-(5-Fluoropyridin-2-yl)piperazine-1-carbonyl)pyridin-3-yl)oxy)methyl)isoindolin-2-yl)-4-(trifluoromethyl)pyridazin-3(2H)-one], below 100 nM; with `O=C(c1cncc(OC[C@H]2c3ccccc3CN2c2cn[nH]c(=O)c2C(F)(F)F)c1)N1CCN(c2ccc(F)cn2)CC1` [Example 387, (R)-5-(1-(((5-(4-(5-Fluoropyridin-2-yl)piperazine-1-carbonyl)pyridin-3-yl)oxy)methyl)isoindolin-2-yl)-4-(trifluoromethyl)pyridazin-3(2H)-one], at least 1000 nM.
Regarding `O=C(c1cncc(OC[C@@H]2c3ccccc3CN2c2cn[nH]c(=O)c2C(F)(F)F)c1)N1CCN(c2ccc(Cl)cn2)CC1` [Example 388, (S)-5-(1-(((5-(4-(5-Chloropyridin-2-yl)piperazine-1-carbonyl)pyridin-3-yl)oxy)methyl)isoindolin-2-yl)-4-(trifluoromethyl)pyridazin-3(2H)-one], the IC50 was below 100 nM.
For the molecule `O=C(c1cncc(OC[C@H]2c3ccccc3CN2c2cn[nH]c(=O)c2C(F)(F)F)c1)N1CCN(c2ccc(Cl)cn2)CC1` [Example 389, (R)-5-(1-(((5-(4-(5-Chloropyridin-2-yl)piperazine-1-carbonyl)pyridin-3-yl)oxy)methyl)isoindolin-2-yl)-4-(trifluoromethyl)pyridazin-3(2H)-one], the IC50 was in the range of 100 to 1000 nM.
Next, `O=C(c1cccc(OC[C@@H]2c3ccccc3CN2c2cn[nH]c(=O)c2C(F)(F)F)c1)N1CCN(c2ncc(C(F)(F)F)cn2)CC1` [Example 390, (S)-4-(Trifluoromethyl)-5-(1-((3-(4-(5-(trifluoromethyl)pyrimidin-2-yl)piperazine-1-carbonyl)phenoxy)methyl)isoindolin-2-yl)pyridazin-3(2H)-one]: below 100 nM.
With `O=C(c1cccc(OC[C@H]2c3ccccc3CN2c2cn[nH]c(=O)c2C(F)(F)F)c1)N1CCN(c2ncc(C(F)(F)F)cn2)CC1` [Example 391, (R)-4-(Trifluoromethyl)-5-(1-((3-(4-(5-(trifluoromethyl)pyrimidin-2-yl)piperazine-1-carbonyl)phenoxy)methyl)isoindolin-2-yl)pyridazin-3(2H)-one] the figure was at least 1000 nM; with `O=C(c1cncc(OC[C@@H]2c3ccccc3CN2c2cn[nH]c(=O)c2C(F)(F)F)c1)N1CCN(c2ncc(C(F)(F)F)cn2)CC1` [Example 392, (S)-4-(Trifluoromethyl)-5-(1-(((5-(4-(5-(trifluoromethyl)pyrimidin-2-yl)piperazine-1-carbonyl)pyridin-3-yl)oxy)methyl)isoindolin-2-yl)pyridazin-3(2H)-one], below 100 nM; with `O=C(c1cncc(OC[C@H]2c3ccccc3CN2c2cn[nH]c(=O)c2C(F)(F)F)c1)N1CCN(c2ncc(C(F)(F)F)cn2)CC1` [Example 393, (R)-4-(Trifluoromethyl)-5-(1-(((5-(4-(5-(trifluoromethyl)pyrimidin-2-yl)piperazine-1-carbonyl)pyridin-3-yl)oxy)methyl)isoindolin-2-yl)pyridazin-3(2H)-one], 100 to 1000 nM.
